In US8282688B2, “Laccase mediators and methods of use” (Danisco US Inc., priority 2006, dated 2012):
Where “and” joins values, the source holds several entries; their conditions need not be identical. Equal entries are not always repeated.

What was measured:
[1] = system: recombinant laccase D from C. unicolor; experiment: Bleaching of denim swatches with recombinant C. unicolor laccase D (Example 5); assay type: biochemical; set-up: key to ΔE (total color difference) Denim swatch Backside / ΔE (total color difference) Denim swatch Frontside: CIE L*a*b* differences, initial minus final; ΔE=(ΔL²+Δa²+Δb²)^1/2
Description: Denim legs (made out of sulfur bottom/indigo dyed denim fabric from Cone Mill, style number 1662P) were pretreated with IndiAge® 2XL at a dose of 1 gram per liter in a 50 lb lab scale tumbling washer. The liquor ratio was 6 to 1 (5 kg substrate in 30 liters of water) and the treatment was performed at 55° C. at pH 4.5 for 1 hour. A warm rinse followed the cellulase treatment, after which the fabric was dried in a tumble dryer. A punch press was used to cut ⅝ inch denim disks from IndiAge® 2XL pretreated denim legs. Each denim disk is pre read with a Chroma Meter CR-200 by Minolta in order to determine the CIE L*a*b* values of both the front and backside of the fabric disk.
One denim disk is placed in each well of two duplicate 12 well micro-titer plates. Each well received C. unicolor laccase (20 uL of 1/20 dilution, approx. 20 ppm), mediator (200, 100, 50 or 20 uL of a 20 mM stock solution in methanol) and 50 mM potassium phosphate buffer, pH 6 for a total volume of 2 mL/well. The mediators were methyl syringate (MS), 4-cyano-2,6-dimethoxyphenol (SN) and 3,4,5-trimethoxyphenol (TMP). The plates were sealed and incubated at 50° C. for 2 hours at 150 rpm in a standard incubator. Following this period, the swatches were removed from the plates and carefully placed on a filter paper in a Buchner funnel and washed with copious amounts of water, followed by drying of the residual water under high vacuum overnight. The swatches were then re-read with the chromometer in order to determine the CIE L*a*b* values of both the front and backside of the disk following bleaching. The total color difference (ΔE) is calculated from the difference between the initial and final CIE L*a*b* values according to the formula ΔE=(ΔL^2+Δa^2+Δb^2)^1/2 The total color differences (ΔE) as a function of mediator concentration are plotted in FIGS. 5 and 6.
A denim swatch bleaching assay was performed as described in Example 16, in this instance, using a recombinant form of the laccase D protein derived from C. unicolor.
Two duplicate 12-well plates were loaded with denim disks. The laccase D stock solution (5.5 ABTS units per mL) was dosed at either 25 or 50 uL per well. The mediators used were methyl syringate (MS), 4-cyano-2,6-dimethoxyphenol (SN) and 4-carboxamido-2,6-dimethoxyphenol (SA) and were used at either 0.5 or 1 mM concentration. The results are depicted in FIGS. 7 and 8.

[2] = system: Cerrena unicolor Laccase (recombinant laccase D); experiment: Laccase bleaching of stonewashed denim legs, effect of temperature, Unimac, recombinant laccase D (Example 9); assay type: biochemical; conditions: laccase 0.05 g/l/0.4 U/ml, pH 6, 30 minutes
Description: Denim, 12 legs weighing approximately 3 kg, was desized in a Unimac UF 50 washing machine under the following conditions: • Desizing for 15 minutes at 10:1 liquor ratio 50° C. with 0.5 g/l (15 g) of Optisize 160 amylase (Genencor) and 0.5 g/l (15 g) of a non-ionic surfactant (e.g. Rucogen BFA, (Rudolf Chemie) or Ultravon GPN, (Huntsman)) • 2 cold rinses for 5 minutes at 30:1 liquor ratio.
Following desizing the denim was stonewashed in a Unimac UF 50 washing machine under the following conditions: • Cold rinse for 5 minutes at 10:1 liquor ratio • Stonewashing for 60 minutes at 10:1 liquor ratio 55° C. with 1 kg of pumice stone, citrate buffer (30 g tri-sodium citrate dihydrate and 30 g citric acid monohydrate) and 35 g IndiAge 2XL cellulase (Genencor). • 2 cold rinses for 5 minutes at 30:1 liquor ratio.
Denim legs were evaluated with a Minolta Chromameter CR 310 in the CIE Lab color space with a D 65 light source. Measurements were done only after laccase treatment. For each denim leg 8 measurements are taken and the result of the 12 legs (96 measurements) was averaged.
Laccase bleaching of stonewashed denim: Denim, 12 legs approximately 3 kg, was desized and stonewashed as described in example 8. After stonewashing a laccase treatment was done in a Unimac UF 50 washing machine according to the following process: • 30 minutes at 10:1 liquor ratio, • pH 6 (21 g monosodium phosphate and 5 g adipic acid, recombinant laccase D) or pH 4.8 (8.6 g monosodium phosphate and 16.8 g of adipic acid, Novoprime Base 268 laccase) • laccase (recombinant laccase D or Novoprime Base 268) • mediator (syringamide (SA) and syringonitrile (SN)) • After laccase treatment the denim use rinsed twice in cold water for 5 minutes at 30:1 liquor ratio.

[3] = mediator 0.5 mM, laccase D stock (5.5 U/mL) 25 uL
[4] = mediator 0.5 mM, laccase D stock (5.5 U/mL) 50 uL
[5] = mediator 1 mM, laccase D stock (5.5 U/mL) 25 uL
[6] = mediator 1 mM, laccase D stock (5.5 U/mL) 50 uL

Compound: COc1cc(C(N)=O)cc(OC)c1O [SA, 4-carboxamido-2,6-dimethoxyphenol]
- ΔE (total color difference) Denim swatch Backside [1, 3]: 6.69 and 6.39
- ΔE (total color difference) Denim swatch Frontside [1, 3]: 5.07 and 5.70
- ΔL Denim swatch Backside [1, 3]: 4.94 and 4.93
- ΔL Denim swatch Frontside [1, 3]: 4.73 and 5.28
- Δb Denim swatch Backside [1, 3]: 4.51 and 4.05
- Δb Denim swatch Frontside [1, 3]: 1.16 and 1.47
- ΔE (total color difference) Denim swatch Backside [1, 4]: 6.15 and 6.71
- ΔE (total color difference) Denim swatch Frontside [1, 4]: 3.96 and 4.75
- ΔL Denim swatch Backside [1, 4]: 4.64 and 5.25
- ΔL Denim swatch Frontside [1, 4]: 3.66 and 4.46
- Δb Denim swatch Backside [1, 4]: 4.04 and 4.17
- Δb Denim swatch Frontside [1, 4]: 0.87 and 0.88
- ΔE (total color difference) Denim swatch Backside [1, 5]: 8.92 and 8.37
- ΔE (total color difference) Denim swatch Frontside [1, 5]: 7.55 and 7.70
- ΔL Denim swatch Backside [1, 5]: 7.02 and 6.53
- ΔL Denim swatch Frontside [1, 5]: 7.07 and 7.19
- Δb Denim swatch Backside [1, 5]: 5.51 and 5.22
- Δb Denim swatch Frontside [1, 5]: 1.76 and 1.68
- ΔE (total color difference) Denim swatch Backside [1, 6]: 8.72 and 9.16
- ΔE (total color difference) Denim swatch Frontside [1, 6]: 6.72 and 7.93
- ΔL Denim swatch Backside [1, 6]: 6.52 and 6.82
- ΔL Denim swatch Frontside [1, 6]: 6.23 and 7.37
- Δa Denim swatch Backside [1, 6]: 0.15 and 0.10
- Δb Denim swatch Backside [1, 6]: 5.79 and 6.12
- Δb Denim swatch Frontside [1, 6]: 1.73 and 2.11
- Bleaching level (CIE L) ([2]; mediator 0.33 mM, 40 ° C.): 35.6
- Bleaching level (CIE L) ([2]; mediator 0.33 mM, 60 ° C.): 35.6

Compound: COc1cc(C#N)cc(OC)c1O [SN, 4-cyano-2,6-dimethoxyphenol]
- ΔE (total color difference) Denim swatch Backside [1, 3]: 11.62 and 11.54
- ΔE (total color difference) Denim swatch Frontside [1, 3]: 9.98 and 10.48
- ΔL Denim swatch Backside [1, 3]: 9.69 and 9.31
- ΔL Denim swatch Frontside [1, 3]: 9.23 and 9.73
- Δb Denim swatch Backside [1, 3]: 6.41 and 6.81
- Δb Denim swatch Frontside [1, 3]: 3.12 and 3.39
- ΔE (total color difference) Denim swatch Backside [1, 4]: 10.67 and 10.48
- ΔE (total color difference) Denim swatch Frontside [1, 4]: 8.70 and 9.31
- ΔL Denim swatch Backside [1, 4]: 8.87 and 8.45
- ΔL Denim swatch Frontside [1, 4]: 8.20 and 8.67
- Δa Denim swatch Backside [1, 4]: 0.26 and 0.33
- Δb Denim swatch Backside [1, 4]: 5.93 and 6.19
- Δb Denim swatch Frontside [1, 4]: 2.34 and 2.90
- ΔE (total color difference) Denim swatch Backside [1, 5]: 13.85 and 13.07
- ΔE (total color difference) Denim swatch Frontside [1, 5]: 13.24 and 13.88
- ΔL Denim swatch Backside [1, 5]: 11.36 and 10.64
- ΔL Denim swatch Frontside [1, 5]: 12.31 and 12.85
- Δb Denim swatch Backside [1, 5]: 7.93 and 7.59
- Δb Denim swatch Frontside [1, 5]: 4.36 and 4.85
- ΔE (total color difference) Denim swatch Backside [1, 6]: 14.05 and 14.15
- ΔE (total color difference) Denim swatch Frontside [1, 6]: 14.18 and 14.15
- ΔL Denim swatch Backside [1, 6]: 11.25 and 10.98
- ΔL Denim swatch Frontside [1, 6]: 12.98 and 12.85
- Δa Denim swatch Backside [1, 6]: 0.29 and 0.48
- Δb Denim swatch Backside [1, 6]: 8.41 and 8.91
- Δb Denim swatch Frontside [1, 6]: 5.33 and 5.50
- effectiveness as mediator for swatch bleaching ([1]; recombinant laccase D, mediator 0.5 or 1 mM): most effective mediator
- Bleaching level (CIE L) ([2]; mediator 0.47 mM, 40 ° C.): 35.7
- Bleaching level (CIE L) ([2]; mediator 0.47 mM, 60 ° C.): 35.9
